Experimental findings from US11319289B2, “5-hydroxy pyridine-based compound for use as P2X1 and P2X3 receptor antagonist and pharmaceutical composition comprising same” (GWANGJU INSTITUTE OF SCIENCE AND TECHNOLOGY, priority 2017, dated 2022) are described below.

For assay [1], the system named is CIPN rats (mechanical allodynia). In words: Antiallodynic effect (von Frey) in chemotherapy-induced peripheral neuropathy (CIPN) rats. Type of assay: in vivo. The note with it: Rattus norvegicus, intravenous administration. As to the method: (§1) 3-1. Evaluation of In Vivo Efficacy
(§2) The antiallodynic effects (mechanical allodynia) were evaluated using rats according to a previously reported protocol. In order to evaluate the withdrawal threshold, rats (naive, SNL and CIPN) were placed on a plastic mesh floor of individual plastic cages. The rats were allowed to acclimate to the environment for 30 minutes and examined after intrathecal or intravenous administration to the caudal vein. The control group received the same volume of vehicle (intrathecal administration of saline or DMSO, intravenous administration of DMSO:PEG:PBS=1:6:3 v/v %) as the experimental groups. Evaluation of the mechanical withdrawal threshold was measured in responses to the application of calibrated von Frey filaments (Stoelting, Wood Dale, Ill., USA) to the hind paw of the rats through the holes on the mesh floor underneath the cage using the ‘up and down method’. A series of eight von Frey filaments (0.4, 0.7, 1.2, 2.0, 3.6, 5.5, 8.5, and 15 g) was applied perpendicular to the sole of the hind paw for 5 seconds while the head was bent. Active withdrawal or flinching of the paw was considered as a positive reaction. The absence of response in the rats, when a pressure was applied to 15 g von Frey filament, was used as a cut-off value. Only rats with definite allodynia (i.e., mechanical withdrawal threshold: less than 4 g after SNL or less than 5 g after CIPN) were tested. The rats after termination of the experiments were euthanized through an overdose of sevoflurane. The withdrawal threshold data for the von Frey filament test was calculated as % MPE (maximum possible effect) based on the following Calculation Equation: % MPE=[(Post-drug threshold−Post-injured baseline threshold)/(Cutoff threshold−post-injured baseline threshold)×100]. Dose-response data were analyzed using Scheffe's post hoc test and one-way analysis of variance (ANOVA).

For assay [2], the system named is SNL rats (mechanical allodynia). Kind of assay: Antiallodynic effect (von Frey) in spinal nerve ligation (SNL) rats. Format: in vivo, rat. The note with it: Rattus norvegicus, antiallodynic effect, intravenous administration. The protocol:
as §1, §2

The test system of assay [3] is neuropathic pain (NeP) animal models. Kind of assay: Efficacy in neuropathic pain (NeP) animal models, model not specified. Type of assay: in vivo, rat. The note with it: Rattus norvegicus, read-out: ED50 of clinical drugs for NeP. The protocol:
as §1, §2

Assay [4] addresses T1, mouse P2X1 receptor (mP2X1) (Mus musculus, UniProt P51576).
T1 construct: expressed in transfected cells; host or cells: Xenopus oocytes (cRNA microinjection)
T1 sequence (P51576 1-399): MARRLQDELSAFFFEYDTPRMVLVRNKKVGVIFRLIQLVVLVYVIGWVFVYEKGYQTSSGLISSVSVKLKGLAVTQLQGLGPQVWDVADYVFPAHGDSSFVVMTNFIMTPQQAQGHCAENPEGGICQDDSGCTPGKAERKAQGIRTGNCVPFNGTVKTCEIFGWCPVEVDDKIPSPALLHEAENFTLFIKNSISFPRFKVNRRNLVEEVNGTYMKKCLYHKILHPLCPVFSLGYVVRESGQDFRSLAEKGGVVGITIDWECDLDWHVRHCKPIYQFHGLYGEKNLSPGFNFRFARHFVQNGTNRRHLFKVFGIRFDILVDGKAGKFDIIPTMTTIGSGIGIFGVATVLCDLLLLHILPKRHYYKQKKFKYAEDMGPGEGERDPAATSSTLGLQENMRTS
In words: Two-electrode voltage clamp assay, recombinant mP2X1 receptor in Xenopus oocytes. Type of assay: cell-based. The note with it: 10 μM compound, 2 μM ATP, mean±SEM n≥3 (footnote c), read-out: mP2X1 % inhibitory effect at 10 μM. The protocol: (§3) 1-1. Two-Electrode Voltage Clamp Assay for Recombinant mP2X1 and hP2X3 Receptors
(§4) Xenopus oocytes were isolated and incubated with 270 U/mg of collagenase at 23 to 24° C. for 1.5 hours. Defolliculated oocytes were kept in Barth's solution at 18° C. After 1 day, the defolliculated oocytes were each microinjected cytosolically with mP2X1 and human P2X3 receptor cRNA ([…], 1 μg/mL), incubated for 24 hours at 18° C. in Barth's solution. The cRNA-injected oocytes were kept for 12 days at 4° C. ATP-activated membrane currents (Vh=−70 mV) were recorded from the cRNA-injected oocytes using the two-electrode voltage clamp technique (Axoclamp 2B amplifier). Voltage recording ([…] tip resistance) and current-recording microelectrodes (5 MΩ tip resistance) were filled with 3.0 M KCl. Oocytes were placed in an electrophysiological chamber continuously superfused with Ringer's solution (5 mL/min, at 18° C.) containing 110 mM NaCl, 2.5 mM KCl, 5 mM HEPES and 1.8 mM BaCl2, with pH adjusted to 7.5. To induce an evoked current, 2 μM ATP was superfused for 60 to 120 seconds and then washed for 20 min. For data analysis, the ATP-evoked current was normalized at pH 7.5. The compounds were introduced to the fixed oocytes 20 minutes prior to ATP exposure in the electrophysiological chamber. IC50 values (the concentration of the compound required to inhibit the ATP response by 50%) were determined by Hill plots designed using the Chemical Formula: log(I/Imax−1), where I is the current evoked by ATP in the presence of an antagonist. Data are presented as mean±SEM (n≥3) from different batches of oocytes.
(§5) In order to investigate the structure-activity relationship (SAR) of the compounds synthesized in the present invention, the antagonistic activity was evaluated by a two-electrode voltage clamp (TEVC) assay in Xenopus oocytes expressing the recombinant mP2X1 or hP2X3, respectively. The hP2X7R antagonistic activity was assessed using an ethidium ion accumulation assay in human HEK293 cells stably expressing the recombinant human P2X7R.
For orientation: Two-electrode voltage clamp holds a large cell at a set potential and records current.

Assay [5] concerns the target T2, human P2X7 receptor (hP2X7) (Homo sapiens, UniProt Q99572).
T2 construct: expressed in transfected cells
T2 sequence (Q99572 1-595): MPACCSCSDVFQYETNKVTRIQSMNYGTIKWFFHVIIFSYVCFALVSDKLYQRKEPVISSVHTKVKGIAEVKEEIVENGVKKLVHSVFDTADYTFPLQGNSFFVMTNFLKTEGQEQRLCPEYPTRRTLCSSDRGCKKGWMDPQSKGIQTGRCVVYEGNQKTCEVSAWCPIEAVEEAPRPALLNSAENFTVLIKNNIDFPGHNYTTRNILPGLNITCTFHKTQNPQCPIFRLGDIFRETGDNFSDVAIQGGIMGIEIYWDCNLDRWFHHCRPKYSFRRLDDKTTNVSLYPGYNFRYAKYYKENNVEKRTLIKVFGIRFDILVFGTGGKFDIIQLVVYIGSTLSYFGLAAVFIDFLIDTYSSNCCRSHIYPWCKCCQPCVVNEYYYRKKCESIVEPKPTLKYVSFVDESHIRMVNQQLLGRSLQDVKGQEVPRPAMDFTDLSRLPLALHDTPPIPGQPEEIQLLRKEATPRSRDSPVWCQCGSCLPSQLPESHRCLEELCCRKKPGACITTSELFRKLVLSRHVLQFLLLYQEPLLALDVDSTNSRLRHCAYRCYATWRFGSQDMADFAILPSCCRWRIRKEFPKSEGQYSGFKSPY
Kind of assay: Ethidium bromide accumulation assay in hP2X7-expressing HEK293 cells. The note with it: 10 μM compound with BzATP. Type of assay: cell-based. The protocol:
1-2. Ethidium Bromide Accumulation Assay in hP2X-Expressing HEK293 Cells
HEK293 cells that are stably transfected with the human P2X7 receptor (P2X7R) were kept under a humidified atmosphere of 5% CO2 at 37° C. in DMEM supplemented with 10% (v/v) FBS, 2 mM L-glutamine and antibiotics (50 U/mL penicillin and 50 μg/ml streptomycin). BzATP-induced pore formation was measured using a fluorescence plate reader by measuring cellular absorption of ethidium in the hP2X7-expressing HEK293 cells. The hP2X7-expressing HEK293 cells were washed once with an appropriate assay buffer, and the buffer was also removed before subsequent analysis. All studies were performed at room temperature and the final assay volume was 100 μL. The cells were resuspended at 2.5×10^6 cells/mL in assay buffers consisting of 10 mM HEPES, 5 mM N-methyl-D-glucamine, 5.6 mM KCl, 10 mM D-glucose and 0.5 mM CaCl2 (pH 7.4) and supplemented with 280 mM sucrose or 140 mM NaCl.
In order to determine the antagonistic activity of the 5-hydroxyl-pyridine derivatives of the present invention and the reference compound (AZD9056), these compounds were added to the cells at a concentration of 10 μM with BzATP without pre-incubation. The cells were incubated for 2 hours under a humidified atmosphere of 5% CO2 at 37° C., and the absorption of ethidium dye was observed by measuring fluorescence with a Bio-Tek instrument FL600 fluorescent plate reader (excitation wavelength of 530 nm and emission wavelength of 590 nm). The results are expressed as a percentage relative to the maximum cumulative amount of ethidium bromide when stimulated with BzATP alone.
as §5

In assay [6] the target is T3, human P2X3 receptor (hP2X3) (Homo sapiens, UniProt P56373).
T3 construct: expressed in transfected cells; host or cells: Xenopus oocytes (cRNA microinjection)
T3 sequence (P56373 1-397): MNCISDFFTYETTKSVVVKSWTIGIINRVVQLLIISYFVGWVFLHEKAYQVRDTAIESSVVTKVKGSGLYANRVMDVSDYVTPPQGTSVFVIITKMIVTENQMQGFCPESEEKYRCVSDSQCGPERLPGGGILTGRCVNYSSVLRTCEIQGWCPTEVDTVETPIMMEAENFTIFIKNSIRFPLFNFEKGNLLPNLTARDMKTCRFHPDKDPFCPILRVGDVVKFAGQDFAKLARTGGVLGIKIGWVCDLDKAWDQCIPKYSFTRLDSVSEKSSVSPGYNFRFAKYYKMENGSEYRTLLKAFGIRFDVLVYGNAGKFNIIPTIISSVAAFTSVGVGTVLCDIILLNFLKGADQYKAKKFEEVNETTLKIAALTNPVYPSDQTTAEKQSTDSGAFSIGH
In words: Two-electrode voltage clamp assay, recombinant hP2X3 receptor in Xenopus oocytes. The note with it: 2 μM ATP-evoked current, Xenopus oocytes, mean±SEM n≥3 (footnote d). Format: cell-based. As to the method: as §3, §4, §5

A word on the ED50: it is the midpoint of the dose-response relation. As to `CCCc1nc(Cc2cccc(Oc3ccccc3)c2)c(C)c(C(=O)OCC)c1O` [Compound 48, Ethyl 3-hydroxy-5-methyl-6-(3-phenoxybenzyl)-2-propylisonicotinate], the ED50 in assay [1] turned out to be 3.87 mg/kg; in assay [2] it was 3.52 mg/kg.
On to `CCCc1nc(Cc2cccc(Oc3ccccc3)c2)c(C)c(C(=O)OCCN2C(=O)c3ccccc3C2=O)c1O` [Compound 46c, 2-phthalimidoethyl 3-hydroxy-5-methyl-6-(3-phenoxybenzyl)-2-propylisonicotinate], for which the ED50 in assay [1] was 3.28 mg/kg; in assay [2] it was 2.97 mg/kg.
The like results for `CCCc1nc(Cc2cccc(Oc3ccccc3)c2)c(C)c(C(=O)OC2CCCC2)c1O` [Compound 46h, Cyclopentyl 3-hydroxy-5-methyl-6-(3-phenoxybenzyl)-2-propylisonicotinate] were, in that order, 3.91 mg/kg and 3.64 mg/kg.
As for `CCCc1nc(Cc2cccc(Oc3ccccc3)c2)c(C)c(C(=O)OCCN2CCCC2)c1O` [Compound 46e, 2-(pyrrolidin-1-yl)ethyl 3-hydroxy-5-methyl-6-(3-phenoxybenzyl)-2-propylisonicotinate], the results for the ED50 in assay [1] and in assay [2] were 3.55 mg/kg and 3.02 mg/kg, respectively.
The like results for `CCCc1nc(Cc2cccc(Oc3ccccc3)c2)c(C)c(C(=O)OCCCCN2C(=O)c3ccccc3C2=O)c1O` [Compound 46d, 4-phthalimidobutyl 3-hydroxy-5-methyl-6-(3-phenoxybenzyl)-2-propylisonicotinate] were, in that order, 3.94 mg/kg and 3.12 mg/kg.
As for `CCCc1nc(Cc2cccc(Oc3ccccc3)c2)c(C)c(C(=O)OC(CC)CC)c1O` [Compound 46g, Pentan-3-yl 3-hydroxy-5-methyl-6-(3-phenoxybenzyl)-2-propylisonicotinate], the ED50 in assay [1] is 3.66 mg/kg; in assay [2], 3.42 mg/kg.
For `CCCCCCCCOC(=O)c1c(C)c(Cc2cccc(Oc3ccccc3)c2)nc(CCC)c1O` [Compound 46b, Octyl 3-hydroxy-5-methyl-6-(3-phenoxybenzyl)-2-propylisonicotinate] the same measures were 2.93 mg/kg and 2.47 mg/kg.
For the compound `CCCc1nc(Cc2cccc(Oc3ccccc3)c2)c(C)c(C(=O)OC(C)C)c1O` [Compound 46f, Isopropyl 3-hydroxy-5-methyl-6-(3-phenoxybenzyl)-2-propylisonicotinate], the ED50 came out at 3.08 mg/kg in assay [1] and 2.78 mg/kg in assay [2].
Regarding `COc1cccc(C2(O)CCCCC2CN(C)C)c1` (centres unmarked) [tramadol, reference compound], the ED50 in assay [3] is 4.67 mg/kg.
Turning to `CCCc1nc(Cc2cccc(Oc3ccccc3)c2)c(C)c(C(=O)OCCc2ccccc2)c1O` [Compound 46a, Phenethyl 3-hydroxy-5-methyl-6-(3-phenoxybenzyl)-2-propylisonicotinate], the ED50 amounted to 3.02 mg/kg in assay [1] and 2.31 mg/kg in assay [2].
For `CCCc1nc(Cc2cccc(Oc3ccccc3)c2)c(C)c(C(=O)OC2CCOC2)c1O` (centres unmarked) [Compound 46i, Tetrahydrofuran-3-yl 3-hydroxy-5-methyl-6-(3-phenoxybenzyl)-2-propylisonicotinate], the results for the ED50 in assay [1] and in assay [2] were 3.56 mg/kg and 2.87 mg/kg, respectively.
In the case of `CCCc1nc(Cc2cccc(Oc3ccccc3)c2)c(C)c(C(=O)OC2CCNCC2)c1O` [Compound 47, Piperidin-4-yl 3-hydroxy-5-methyl-6-(3-phenoxybenzyl)-2-propylisonicotinate], the ED50 is 3.77 mg/kg in assay [1] and 3.35 mg/kg in assay [2].
For orientation: IC50 means the concentration needed to halve the response being measured. As to `CCCc1nc(CCc2ccc(OC)cc2)c(C)c(C(=O)O)c1O` [Compound 22c, 3-Hydroxy-6-(4-methoxyphenethyl)-5-methyl-2-propylisonicotinic acid], the inhibition at 10 µM in assay [4] worked out at 22.7%. Besides, the “hP2X7 % inhibition of ethidium bromide accumulation” value in assay [5] is listed as “Inactive”. In assay [6], the half-inhibitory concentration (IC50) was 303 nM.
